Measurements taken from patent US20150191469A1, “COMPOUNDS AND METHODS FOR TREATING HIV” (priority 2012, published 2015).

What follows are compounds tested on HIV (assay: MT4 assay: antiviral HIV activity (cell protection, cell titer glo readout at 96 hours)). Conditions: Human immunodeficiency virus 1, MT4, 96 h, MT4 cells, cell titer glo readout at 96 hours, 10 point dose response; read-out: HIV MT4 Assay IC50.
Format: cell-based
Outline: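 MT-4 cells infected with HIV, with inhibition readout by CellTiter-Glo luminescence at 96 h relative to no-compound control. Cytotoxicity measured in parallel under the same conditions. IC50 from a 10-point, 3-4-fold dilution series spanning >1000-fold, fitted with a four-parameter logistic equation.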

First: Cc1nc2c(cc(-c3ccnc(N4CCCN(S(=O)(=O)C5CC5)CC4)c3)n2C)c(-c2cc(F)c3c(c2C)CCCO3)c1[C@H](OC(C)(C)C)C(=O)O (atropisomer, axis not shown) [Example 114]
Second: CC(=O)N1CCCN(c2cc(-c3cc4c(-c5cc(F)c6c(c5C)CCCO6)c([C@H](OC(C)(C)C)C(=O)O)c(C)nc4n3C)ccn2)CC1 (atropisomer, axis not shown) [Example 95]
The IC50 of the first is 2.1-fold lower: 25 nM for the first, 52.4 nM for the second.

Compared with `Cc1nc2c(cc(-c3nc(-c4ccc5c(cnn5C)c4)no3)n2C)c(-c2cc(F)c3c(c2C)CCCO3)c1[C@H](OC(C)(C)C)C(=O)O` (atropisomer, axis not shown; (M)) [Example 354, (2S)(M)-2-(tert-butoxy)-2-(4-(8-fluoro-5-methylchroman-6-yl)-1,6-dimethyl-2-(3-(1-methyl-1H-indazol-5-yl)-1,2,4-oxadiazol-5-yl)-1H-pyrrolo[2,3-b]pyridin-5-yl)acetic acid], `Cc1nc2c(cc(-c3cc(-c4ccc5c(cnn5C)c4)ncn3)n2C)c(-c2cc(F)c3c(c2C)CCCO3)c1[C@H](OC(C)(C)C)C(=O)O` [Example 142] is 2.8-fold lower in IC50: 5 nM for the first, 1.8 nM for the second.

`Cc1nc2c(cc(-c3nnc(N4CCN5CCOC[C@@H]5C4)o3)n2C)c(-c2cc(F)c3c(c2C)CCCO3)c1[C@H](OC(C)(C)C)C(=O)O` [Example 333] and `Cc1nc2c(cc(-c3nnc(N4CCOCC4)o3)n2C)c(-c2cc(F)c3c(c2C)CCCO3)c1[C@H](OC(C)(C)C)C(=O)O` [Example 310] are within 1.5-fold of each other in IC50: 16.5 nM for the first, 15.4 nM for the second.

`Cc1nc2c(cc(-c3ccnc(N4CCN(c5ccccn5)CC4)c3)n2C)c(-c2cc(F)c3c(c2C)CCCO3)c1[C@H](OC(C)(C)C)C(=O)O` (atropisomer, axis not shown) [Example 90] and `Cc1nc2c(cc(-c3ccnc(N4CCN(C(=O)N(C)C)CC4)c3)n2C)c(-c2cc(F)c3c(c2C)CCCO3)c1[C@H](OC(C)(C)C)C(=O)O` (atropisomer, axis not shown) [Example 115] are within 1.5-fold of each other in IC50: 13.3 nM for the first, 15.6 nM for the second.

Compared with `Cc1nc2c(cc(C(=O)NCc3c(F)cccc3F)n2C)c(-c2cc(F)c3c(c2C)CCCO3)c1[C@H](OC(C)(C)C)C(=O)O` [Example 254], `Cc1nc2c(cc(C(=O)NCc3ccccn3)n2C)c(-c2cc(F)c3c(c2C)CCCO3)c1[C@H](OC(C)(C)C)C(=O)O` [Example 267] is 6.9-fold higher in IC50: 3.8 nM for the first, 26.1 nM for the second. The first is the more potent here.

`Cc1nc2c(cc(-c3cncc(N4CCN(C5CCOCC5)CC4)n3)n2C)c(-c2cc(F)c3c(c2C)CCCO3)c1[C@H](OC(C)(C)C)C(=O)O` [Example 360] and `Cc1nc2c(cc(-c3ccn(C4CN(C5CCOCC5)C4)n3)n2C)c(-c2cc(F)c3c(c2C)CCCO3)c1[C@H](OC(C)(C)C)C(=O)O` [Example 187] are within 1.5-fold of each other in IC50: 30.8 nM for the first, 26.5 nM for the second.

Compared with `Cc1nc2c(cc(C(=O)N3CCC(C)CC3)n2C)c(-c2cc(F)c3c(c2C)CCCO3)c1[C@H](OC(C)(C)C)C(=O)O` [Example 176], `Cc1nc2c(cc(C(=O)N3CCC(c4ccccc4)CC3)n2C)c(-c2cc(F)c3c(c2C)CCCO3)c1[C@H](OC(C)(C)C)C(=O)O` [Example 170] is 6.1-fold lower in IC50: 25.6 nM for the first, 4.2 nM for the second.

Compared with `Cc1nc2c(cc(CN3CCC[C@@H]3CO)n2C)c(-c2cc(F)c3c(c2C)CCCO3)c1[C@H](OC(C)(C)C)C(=O)O` [Example 295], `Cc1nc2c(cc(C(=O)NCC(C)(C)C)n2C)c(-c2cc(F)c3c(c2C)CCCO3)c1[C@H](OC(C)(C)C)C(=O)O` [Example 243] is 1.7-fold lower in IC50: 51.2 nM for the first, 30 nM for the second. The second is the more potent here.

`Cc1nc2c(cc(-c3ccnc(-c4ccc5nnn(C)c5c4)c3)n2C)c(-c2cc(F)c3c(c2C)CCCO3)c1[C@H](OC(C)(C)C)C(=O)O` (atropisomer, axis not shown) [Example 35] and `Cc1nc2c(cc(-c3ccnc(-c4cccnc4)c3)n2C)c(-c2cc(F)c3c(c2C)CCCO3)c1[C@H](OC(C)(C)C)C(=O)O` (atropisomer, axis not shown) [Example 6, (2S)-2-(tert-butoxy)-2-[4-(8-fluoro-5-methyl-3,4-dihydro-2H-1-benzopyran-6-yl)-1,6-dimethyl-2-[2-(pyridin-3-yl)pyridin-4-yl]-1H-pyrrolo[2,3-b]pyridin-5-yl]acetic acid] are within 1.5-fold of each other in IC50: 10.9 nM for the first, 14.8 nM for the second.

First: Cc1nc2c(cc(-c3nnc(N4CCCN(C)CC4)o3)n2C)c(-c2cc(F)c3c(c2C)CCCO3)c1[C@H](OC(C)(C)C)C(=O)O [Example 306]
Second: Cc1nc2c(cc(-c3nnc(N4CCN(C)CC4)o3)n2C)c(-c2cc(F)c3c(c2C)CCCO3)c1[C@H](OC(C)(C)C)C(=O)O [Example 312]
The IC50 of the first is 2.6-fold higher: 51.8 nM for the first, 19.9 nM for the second.

Compared with `Cc1nc2c(cc(C(=O)NCc3ccc(N(C)C)cc3)n2C)c(-c2cc(F)c3c(c2C)CCCO3)c1[C@H](OC(C)(C)C)C(=O)O` [Example 227], `Cc1nc2c(cc(C(=O)N[C@@H](C)c3ccccc3)n2C)c(-c2cc(F)c3c(c2C)CCCO3)c1[C@H](OC(C)(C)C)C(=O)O` [Example 210] is 1.8-fold higher in IC50: 2.8 nM for the first, 5 nM for the second. The first is the more potent here.

Compared with `Cc1nc2c(cc(-c3ccn(C4CN(C)C4)n3)n2C)c(-c2cc(F)c3c(c2C)CCCO3)c1[C@H](OC(C)(C)C)C(=O)O` (atropisomer, axis not shown; (M)) [Example 129, (2S)(M)-2-(tert-butoxy)-2-(-4-(8-fluoro-5-methylchroman-6-yl)-1,6-dimethyl-2-(1-(1-methylazetidin-3-yl)-1H-pyrazol-3-yl)-1H-pyrrolo[2,3-b]pyridin-5-yl)acetic acid], `Cc1nc2c(cc(-c3ccnc(C4=CCN(C)CC4)c3)n2C)c(-c2cc(F)c3c(c2C)CCCO3)c1[C@H](OC(C)(C)C)C(=O)O` (atropisomer, axis not shown) [Example 38] is 2.5-fold lower in IC50: 45.2 nM for the first, 17.9 nM for the second.

Going from `Cc1nc2c(cc(-c3nc(N4CCN(C5CCOCC5)C[C@H]4C)ns3)n2C)c(-c2cc(F)c3c(c2C)CCCO3)c1[C@H](OC(C)(C)C)C(=O)O` [Example 378] to `Cc1nc2c(cc(-c3nc(N4C[C@@H](C)N[C@@H](C)C4)ns3)n2C)c(-c2cc(F)c3c(c2C)CCCO3)c1[C@H](OC(C)(C)C)C(=O)O` (racemic) [Example 397], the IC50 rises from 4.1 nM to 13.1 nM (3.2-fold).

First: Cc1nc2c(cc(-c3nnc(N4CCC(N5CCS(=O)(=O)CC5)CC4)o3)n2C)c(-c2cc(F)c3c(c2C)CCCO3)c1[C@H](OC(C)(C)C)C(=O)O [Example 320]
Second: Cc1nc2c(cc(-c3nnc(N4CCN(CC5CC5)CC4)o3)n2C)c(-c2cc(F)c3c(c2C)CCCO3)c1[C@H](OC(C)(C)C)C(=O)O [Example 337]
The IC50 of the first is 83-fold higher: 380 nM for the first, 4.6 nM for the second.

Compared with `Cc1nc2c(cc(C(=O)N3CCC4(CC3)CC(Cc3cccnc3)C(=O)O4)n2C)c(-c2cc(F)c3c(c2C)CCCO3)c1[C@H](OC(C)(C)C)C(=O)O` (stereo partly shown) [Example 200], `Cc1nc2c(cc(C(=O)N3CCC(c4cccc(C#N)c4)CC3)n2C)c(-c2cc(F)c3c(c2C)CCCO3)c1[C@H](OC(C)(C)C)C(=O)O` [Example 177] is 1700-fold lower in IC50: 8050 nM for the first, 4.7 nM for the second.

Going from `Cc1nc2c(cc(-c3ccnc(-c4ccc5c(cnn5C)c4)c3)n2C)c(-c2ccc3c(c2C)NCCO3)c1[C@H](OC(C)(C)C)C(=O)O` [Example 423] to `Cc1nc2c(cc(-c3ccnc(-c4ccc5c(c4)CN(C4COC4)CC5)c3)n2C)c(-c2cc(F)c3c(c2C)CCCO3)c1[C@H](OC(C)(C)C)C(=O)O` (atropisomer, axis not shown) [Example 48], the IC50 rises from 1.8 nM to 4.4 nM (2.4-fold).

`Cc1nc2c(cc(-c3ccc4c(c3)CCN(C)C4=O)n2C)c(-c2cc(F)c3c(c2C)CCCO3)c1[C@H](OC(C)(C)C)C(=O)O` (atropisomer, axis not shown) [Example 137] gave an IC50 of 43.8 nM.

Same assay, conditions: MT4 cells, cell titer glo readout at 96 hours, 10 point dose response; read-out: HIV MT4 Assay IC50

`Cc1nc2c(cc(-c3nc(N4CCN(C5CCOCC5)CC4)ns3)n2C)c(-c2cc(F)c3c(c2C)CCCO3)c1[C@H](OC(C)(C)C)C(=O)O` [Example 379] was tested, and the IC50 was 208 nM.
